Laboratory results as given in publication PMC11592477, “Bioengineering the Human Intestinal Mucosa and the Importance of Stromal Support for Pharmacological Evaluation In Vitro” (Cells, 2024).

How the values were obtained:
[1] = test system: epithelial-only (EO) Caco-2 monolayer constructs; assay: Ussing chamber drug permeability, epithelial-only (EO) constructs; type: in vitro ADME, human
[2] = test system: full thickness (FT) intestinal constructs (Caco-2 on CCD-18co or HDFn stromal compartment); assay: Ussing chamber drug permeability, full-thickness (FT) intestinal constructs; type: in vitro ADME, human
Caco-2 monolayers = settings: hydrophilic drugs; in words; ref [14]; cited from earlier work
[3] = hydrophilic drugs; in words; ref [14]; cited from earlier work
[4] = test system: epithelial-only (EO) Caco-2 monolayer constructs; assay: Transepithelial electrical resistance (TEER) of KGF-supplemented EO constructs; type: cell-based, human; settings: with increasing KGF concentration (0.5–25 ng.mL−1)
Aminopeptidase = Aminopeptidase activity assay of KGF-supplemented EO constructs; type: cell-based, human; settings: with increasing KGF concentration (0.5–25 ng.mL−1)
Experimental: (§1) For conditioned medium studies, Caco-2 monolayers were established as above, but after 48 h, the medium was replenished with a 1:1 mix of fresh culture medium and conditioned medium obtained from 80% confluent fibroblast cultures (HDFn or CCD-18co). The conditioned medium was centrifuged to remove cellular debris and sterile filtered before addition to EO cultures. Similarly, KGF-supplemented cultures were seeded in standard conditions and supplemented with a range of concentrations (0.5–25 ng·mL^−1) of KGF following the establishment of cultures for 48 h. Both conditioned and KGF-supplemented media were replenished at each media change: every two days.
Aminopeptidase activity was quantified through the catalyzation of the cleavage of L-slsninr-4-nitroanilide hydrochloride into the breakdown product 4-nitranline. This was achieved through the addition of 0.5 mL of prewarmed 1.5 mM L-analine-4-nitiroanilide hydrochloride solution (Sigma-Aldrich, St. Louis, […], USA) to the apical compartment of bioengineered tissue constructs (both EO and FT). The constructs were incubated for 1 h at 37 °C at 100 rpm using an orbital shaker. Following incubation, 100 μL of the cleavage product-containing solution was sampled from each construct and the absorbance was quantified at 405 nm using a BioTek™ ELx800 (Winooski, VT, USA) plate reader. Enzyme activity was expressed as a function of tissue area.

[5] = test system: epithelial-only (EO) Caco-2 monolayer constructs; assay: qPCR gene expression in KGF-supplemented EO constructs; type: cell-based, human; settings: with increasing KGF concentration
Experimental: as §1
EO tissue constructs were lysed in RLT buffer (Qiagen, Manchester, UK) and homogenized through repeated aspiration with a 20-gauge needle. […] The mRNA was suspended in molecular-grade water and stored at −80 °C prior to analysis. mRNA abundance was quantified using a Nanodrop Spectrophotometer […] and 200 ng was reverse-transcribed using the GoScript™ Reverse Transcriptase kit (Promega, Hampshire, UK), as per the manufacturer’s instructions. […] Data were analyzed through normalization to the housekeeping reference genes (GAPDH) using the ΔΔCt method and the fold change was averaged after this normalization.

villin = assay: Immunofluorescence of villin in KGF-supplemented EO constructs; type: cell-based, human; settings: with KGF concentration up to 5–25 ng.mL−1
Experimental: as §1
Wax sections were prepared for staining by de-paraffinization in Histo-Clear followed by rehydration from 100% ethanol to PBS. Antigen retrieval was performed in citrate buffer (pH 6, Sigma-Aldrich) at 95 °C for 20 min. Alternatively, EO constructs were prepared through fixation in a 1:1 ice-cold solution of methanol (Sigma-Aldrich) and acetone (Sigma-Aldrich) for 10 min at −20 °C. From this point onwards whole EO constructs and mounted tissue sections were stained in the same manner.
The samples were blocked for 1 h at room temperature in a solution consisting of 10% normal goat serum ([…], Sigma-Aldrich) and 0.1% […] (Sigma-Aldrich) in PBS. […]

MDR1 = MDR1 (Homo sapiens, UniProt P08183); assay: MDR1-mediated Rhodamine 123 transport in EO constructs (Ussing chamber); settings: EO constructs supplemented with KGF 0.5–25 ng.mL−1, absence of verapamil
[6] = FT constructs on intestinal and dermal fibroblast foundation compared with Caco-2 monolayer EO, 100 μM

MDR1, sequence (P08183 whole entry): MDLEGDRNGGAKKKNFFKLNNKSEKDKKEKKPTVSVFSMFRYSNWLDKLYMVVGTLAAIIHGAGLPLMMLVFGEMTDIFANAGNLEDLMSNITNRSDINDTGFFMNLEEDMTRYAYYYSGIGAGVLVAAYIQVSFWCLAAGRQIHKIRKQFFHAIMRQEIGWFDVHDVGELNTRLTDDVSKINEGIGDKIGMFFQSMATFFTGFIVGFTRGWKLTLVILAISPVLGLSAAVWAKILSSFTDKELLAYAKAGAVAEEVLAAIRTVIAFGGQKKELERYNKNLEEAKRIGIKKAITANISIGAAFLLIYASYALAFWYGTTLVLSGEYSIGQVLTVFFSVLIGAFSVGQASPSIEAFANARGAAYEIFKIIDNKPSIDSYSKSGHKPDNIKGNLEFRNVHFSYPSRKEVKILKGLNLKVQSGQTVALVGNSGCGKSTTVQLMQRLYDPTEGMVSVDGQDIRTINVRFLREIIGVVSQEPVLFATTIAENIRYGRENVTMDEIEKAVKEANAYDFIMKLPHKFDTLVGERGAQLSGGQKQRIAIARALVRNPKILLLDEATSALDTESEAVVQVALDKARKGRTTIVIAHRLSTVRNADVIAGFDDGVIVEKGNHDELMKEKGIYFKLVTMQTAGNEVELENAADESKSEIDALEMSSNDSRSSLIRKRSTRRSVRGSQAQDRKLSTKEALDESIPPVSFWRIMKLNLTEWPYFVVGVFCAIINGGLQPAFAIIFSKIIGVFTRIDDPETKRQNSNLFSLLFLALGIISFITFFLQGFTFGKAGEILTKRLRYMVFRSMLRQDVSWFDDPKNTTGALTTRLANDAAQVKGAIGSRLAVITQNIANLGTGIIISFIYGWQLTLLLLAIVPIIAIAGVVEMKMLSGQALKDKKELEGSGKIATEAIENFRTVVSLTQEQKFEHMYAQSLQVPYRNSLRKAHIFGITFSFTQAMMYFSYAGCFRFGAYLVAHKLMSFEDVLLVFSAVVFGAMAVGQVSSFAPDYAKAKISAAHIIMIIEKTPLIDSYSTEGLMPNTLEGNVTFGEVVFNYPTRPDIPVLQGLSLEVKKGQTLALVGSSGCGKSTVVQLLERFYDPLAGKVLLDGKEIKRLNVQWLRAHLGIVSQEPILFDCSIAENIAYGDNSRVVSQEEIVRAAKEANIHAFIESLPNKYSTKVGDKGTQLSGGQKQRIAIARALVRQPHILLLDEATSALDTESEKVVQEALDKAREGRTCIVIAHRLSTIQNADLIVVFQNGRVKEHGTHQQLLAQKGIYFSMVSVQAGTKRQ

## COC(=O)c1ccccc1-c1c2ccc(=N)cc-2oc2cc(N)ccc12 [Rhodamine 123]
[1]; EO constructs in dermal fibroblast conditioned medium vs control, 5 μM, 120 min
  apparent permeability (Papp), basal-apical: enhanced
[1]; EO constructs in medium conditioned by intestinal and dermal fibroblasts vs control medium, 5 μM, 120 min
  apparent permeability (Papp), apical-basal: increased
[2]; FT constructs on intestinal fibroblast foundation compared with dermal fibroblast counterpart, absence of verapamil, 5 μM
  apparent permeability (Papp), basal-apical: significantly increased
[2]; FT constructs on intestinal vs dermal fibroblast foundation, regardless of verapamil, 5 μM
  apparent permeability (Papp), apical-basal: no significant difference

## CC1(C)S[C@@H]2[C@H](NC(=O)[C@H](N)c3ccc(O)cc3)C(=O)N2[C@H]1C(=O)O [amoxicillin]
Caco-2 monolayers
  Caco-2 permeability in vitro: low
[3]
  absorption in vivo: high

## CC1=C(C(=O)O)N2C(=O)[C@@H](NC(=O)[C@H](N)c3ccc(O)cc3)[C@H]2SC1 [cefadroxil]
Caco-2 monolayers
  Caco-2 permeability in vitro: low
[3]
  absorption in vivo: high

## N[C@@H](C(=O)N[C@@H]1C(=O)N2C(C(=O)O)=C(Cl)CC[C@H]12)c1ccccc1 [loracarbef]
Caco-2 monolayers
  Caco-2 permeability in vitro: low
[3]
  absorption in vivo: high

## CN(Cc1cnc2nc(N)nc(N)c2n1)c1ccc(C(=O)N[C@@H](CCC(=O)O)C(=O)O)cc1 [methotrexate]
[1]; EO constructs in intestinal fibroblast conditioned medium, 10 μM
  Papp, basal-apical transport (BCRP-mediated): modestly enhanced
[2]; FT co-culture constructs only, to a greater degree with dermal fibroblasts, 10 μM
  Papp, apical-basal transport (RFC1 and PCFT): increased
[2]; FT constructs with dermal fibroblast-based stromal foundation, 10 μM
  Papp, basal-apical transport (BCRP-mediated): increased to the greatest extent

## CC(C)C[C@H](CN)CC(=O)O [pregabalin]
Caco-2 monolayers
  Caco-2 permeability in vitro: low
[3]
  absorption in vivo: high

## Cc1cn([C@H]2C[C@H](N=[N+]=[N-])[C@@H](CO)O2)c(=O)[nH]c1=O [zidovudine]
Caco-2 monolayers
  Caco-2 permeability in vitro: low
[3]
  absorption in vivo: high

## Lucifer yellow
[1]; EO constructs in intestinal fibroblast-conditioned medium vs control, not significant, 100 μM
  permeability (Papp), basal-apical: slight increase
[2]; [6]
  permeability (Papp), apical-basal: significantly increased
  permeability (Papp), basal-apical: significantly increased

B1: keratinocyte growth factor (protein, UniProt P21781 32-194, looked up)
Fibroblast growth factor 7: CNDMTPEQMATNVNCSSPERHTRSYDYMEGGDIRVRRLFCRTQWYLRIDKRGKVKGTQEMKNNYNIMEIRTVAVGIVAIKGVESEFYLAMNKEGKLYAKKECNEDCNFKELILENHYNTYASAKWTHNGGEMFVALNQKGIPVRGKKTKKEQKTAHFLPMAIT
notes: keratinocyte growth factor, soluble mediator secreted by fibroblasts, added exogenously to EO constructs
[4]
  TEER: decreased
Aminopeptidase
  aminopeptidase activity: increased
[5]
  occludin gene expression (qPCR): decreased
  villin gene expression (qPCR): increased
villin
  immunofluorescent detection of villin: increases
MDR1
  effect on basal-apical transport of Rhodamine 123: increased
